The source made the active and inactive calls. No rule for the calls is given here.
These molecules were tested on HEK-293T NF-kB luciferase reporter counterscreen, luminescence (assay: inhibitors of HEK-293T NF-kB luciferase – HEK-293T cells, luminescence, counter-screen for T-cell antigen receptor NF-kB inhibitors, dose response (AID 489041)).

SMILES	IC50
CCCC(=O)NC(c1ccc(C)cc1)c1ccc2cccnc2c1O (stereo not given)	0.43 µM
COc1ccccc1NC(=O)c1cnc(Nc2ccccc2OC)c2ccccc12	> 80 µM (inactive)
C/C(=N\NC(=O)c1cc(C)nc2ccccc12)c1ccccn1	3.06 µM
Cc1ccc(C(=O)Nc2ncc(Cc3ccc(SC(F)F)cc3)s2)cc1	> 80 µM (inactive)
CCCCCN1C=CC(=C2C(=O)c3ccccc3C2=O)C=C1	1.9 µM
COc1cc(/C=C/[N+](=O)[O-])ccc1OCc1cccc(C(=O)O)c1	10.5 µM
O=C(Nc1ncc(Cc2ccc(SC(F)F)cc2)s1)c1ccc(OC(F)F)cc1	3.66 µM
Cc1c(C(=O)N2CCOCC2)[nH]c2c1C(=O)CC(c1ccccc1Cl)C2 (stereo not given)	13.8 µM
Cn1cc(C(=O)N/N=C/c2c(O)ccc3ccccc23)ccc1=O	> 80 µM (inactive)
CCCOc1ccc(/C=N/Nc2cc(N3CCOCC3)ncn2)c(O)c1	0.38 µM
CCOC(=O)C(C)Oc1cccc2c(=O)n(CC(=O)NCc3ccc4c(c3)OCO4)ccc12 (stereo not given)	2.23 µM
O=c1cc(-c2ccccc2)[nH]c2ccccc12	15.5 µM
O=c1cc(-c2ccccc2)[nH]c2cc(Cl)ccc12	19.1 µM
COc1cccc2sc(Nc3nnc(-c4ccccc4Cl)o3)nc12	> 80 µM (inactive)
CCOC(=O)N=Nc1c2ccccc2c2nc3no[nH]c3nc12	0.52 µM
Cc1cc(NC(=O)CSc2nc3c(sc4ccccc43)c(=O)n2CCCN2CCOCC2)n[nH]1	1.02 µM
COc1ccc(C(NC(=O)C(C)C)c2ccc3cccnc3c2O)cc1 (stereo not given)	> 80 µM (inactive)
COc1ccc(Cn2c(SCc3ccc(C)cc3)nc3cc(OC)c(OC)cc3c2=N)cc1Cl	> 80 µM (inactive)
Nc1nc(Cl)cc(N2CCC(c3cc(-c4ccc(Cl)cc4)n[nH]3)CC2)n1	2.44 µM
COc1cccc(N2CCN(c3ncnc4c3cnn4-c3ccc(C)cc3C)CC2)c1	2.07 µM
Cc1cc(C)cc(NS(=O)(=O)c2ccc(-c3cnc(C4CC4)o3)cc2)c1	1.8 µM
CCn1nc(C)c(CNC(=O)c2ccc(OC3CCN(Cc4ccccn4)CC3)cc2)c1C	1.72 µM
COc1ccc(NC(=O)/C(Cl)=C(/Cl)S(=O)Cc2ccccc2Cl)cn1 (stereo not given)	3.95 µM
CCN1/C(=C/C(C)=C/c2sc3ccccc3[n+]2CC)Sc2ccccc21	0.78 µM
COc1cccc(OC)c1C1=NCC(=O)Nc2c1oc1ccc(Br)cc21	3.28 µM
Cn1c2c(c(=O)n(C)c1=O)C(C(F)(F)F)(C(F)(F)F)N=C(c1ccc(Cl)cc1)N2	1.62 µM
CCO[C@H]1OC(C(=O)NCc2nc3ccccc3[nH]2)=C[C@@H](C2CC2)[C@@H]1CCCO	41.1 µM (inactive)

SMILES	IC50
Cc1ccc2nc(-c3ccc4c(c3)OCCO4)cn2c1	2.34 µM
Cc1ccc(O)c(N=Nc2nccs2)c1	> 80 µM (inactive)
COc1cc(-c2noc(C)c2C#Cc2ccsc2)cc(OC)c1OC	4.06 µM
Cc1ccc(O)c(NC(=O)CCC2CCCCC2)c1	> 80 µM (inactive)
CCCCCCCCCCn1ccc(=N)cc1	0.61 µM
COc1ccc2c(c1)C(=O)N1[C@H]3c4cc(Br)ccc4OC[C@@H]3[C@H](c3ccccc3)[C@]1(C)C(=O)N2	> 80 µM (inactive)
CCCc1cc(C(=O)N/N=C/c2ccc(CC)s2)c2ccccc2n1	2.47 µM
CC[n+]1cc(C)ccc1/C=C/c1ccc(N(C)C)cc1	3.97 µM
Cc1ccc(Nc2nc(-c3c(C)nc4ncccn34)cs2)cc1	1 µM
CCOCCOC(=O)c1[nH]c2c(c1C)C(=O)CC(c1cccs1)C2 (stereo not given)	4.6 µM
Cc1cc(=O)oc2cc(OCC3CC(c4ccccc4Cl)=NO3)ccc12 (stereo not given)	5.52 µM
O=C(c1ccccc1)c1nn(-c2ccc(Cl)cc2)c(=O)cc1C(F)(F)F	5 µM
O=C(Nc1ccc(Cc2ccncc2)cc1)c1ccc(S(=O)(=O)N2CCCC2)cc1	2.75 µM
O=C(NC(Nc1nc2ccc([N+](=O)[O-])cc2s1)(C(F)(F)F)C(F)(F)F)c1ccccc1	> 80 µM (inactive)
CC1(C)CC(N2CCN(C(c3ccccc3)c3ccccc3)CC2)=CC(=[N+]2CCCCC2)C1	1.25 µM
COc1ccc([C@H]2CC(=O)C=C(c3ccc(OC)cc3OC)C2)cc1	9.99 µM
CN1/C(=C\C(=O)C[n+]2ccc3ccccc3c2)C(C)(C)c2ccccc21	4.62 µM
CC1(C)Cc2c(sc(NC(=O)COc3cccc4ccccc34)c2C#N)C(C)(C)N1	> 80 µM (inactive)
Cc1ccc2c(c1)COc1c3ccc(C(=O)O)cc3nn1-2	12.9 µM
COc1ccc(NS(=O)(=O)c2cc(-c3cnc(C4CC4)o3)ccc2C)cc1	9.37 µM
c1ccc(-c2noc(-c3ccc4ccccc4c3)n2)nc1	3.2 µM
CC/C=C/CC(=O)N[C@@H](c1ccccc1)[C@@H](O)C(=O)O[C@H]1C[C@@]2(O)[C@@H](OC(=O)c3ccccc3)C3[C@](C)(C(=O)[C@H](OC(C)=O)C(=C1C)C2(C)C)[C@@H](O)C[C@H]1OC[C@@]31OC(C)=O (stereo not given in full)	> 80 µM (inactive)
Cc1nc2ccccc2c2c1CC(C(C)(Cl)Br)O2 (stereo not given)	2.9 µM
COc1ccc(-n2nnnc2-c2cccc(OC)c2)cc1	19.7 µM
O=[N+]([O-])c1ccc(-c2nc(C(Cl)Cl)c3ccccc3n2)cc1	54.5 µM (inactive)
CCCCCCCCn1c2c(c(=N)c3c1CCC3)CCCC2	1.43 µM
CCOC(=O)c1[nH]c(C)c(C(=O)Nc2ccc(C)cc2C)c1C	46.1 µM (inactive)

SMILES	IC50
CC(C)Nc1ccc(C(CC(N)=O)NC(=O)c2ccc(Br)cc2)cc1[N+](=O)[O-] (stereo not given)	> 80 µM (inactive)
O=C1C=CCC(/C=C/c2ccccc2)O1 (stereo not given)	22.2 µM (inactive)
O=C1c2c(O)ccc(O)c2C(=O)c2c(NCCNCCO)ccc(NCCNCCO)c21	10.7 µM
O=C(N/N=C\c1c(O)ccc2ccccc12)c1ccc(S(=O)(=O)N2CCCCC2)cc1	> 80 µM (inactive)
CC#CC(=O)N1CCC(n2nccc2NC(=O)c2ccc3c(c2)OCO3)CC1	> 80 µM (inactive)
COC(=O)C1CN(C#N)N(c2ccc(Cl)cc2)C12c1ccccc1-c1ccccc12 (stereo not given)	15.7 µM
COc1cccc(N2CCN(C(=O)c3ccc(CS(=O)c4ccccc4C)o3)CC2)c1 (stereo not given)	8.21 µM
Cc1nc(Nc2nc3c(c(=O)[nH]2)CCC3)nc2ccccc12	40.1 µM (inactive)
CC(=O)N(C)C1=C(N2CCOCC2)C(=O)c2ccccc2C1=O	5.29 µM
O=C(Nc1ccncc1)C1CCCN(S(=O)(=O)c2cccc3cccnc23)C1 (stereo not given)	35.1 µM (inactive)
COc1ccc(-[n+]2c(-c3ccccc3)cc(-c3ccc(C)cc3)cc2-c2ccccc2)cc1	3.61 µM
CN(C)c1ccc(-c2nn3c(-c4ccccc4Cl)nnc3s2)cc1	19.8 µM
C[C@@H]1C=CC(=O)O[C@@H]1c1ccc(Cl)cc1	34 µM (inactive)
Cc1csc2ncnc(NC3CCN(Cc4ccccc4)CC3)c12	2.22 µM
CSc1nccc(-c2nn(-c3ccc(C)cc3)ccc2=O)n1	6.22 µM
CCOc1cccc(/C=N/Nc2ccc(S(=O)(=O)N(CC)CC)cn2)c1O	0.31 µM
CCOC(=O)N/N=C/c1c(C)nn(-c2cccc(C(F)(F)F)c2)c1Cl	8.93 µM
COc1cc(NC(=O)N2CCNC2=O)cc(C(=O)Nc2cccc(C(F)(F)F)c2)c1	2.17 µM
O=C(Nc1ccc(C(F)(F)F)cc1)c1cccn(Cc2ccc3c(c2)OC(F)(F)O3)c1=O	22.5 µM (inactive)
Cc1ccc(O)c(NC(=O)c2cc(-c3ccccc3)on2)c1	> 80 µM (inactive)
Cc1c(C(=O)N/N=C/c2ccc(Cl)cc2)[nH]c2ccc(Cl)cc12	1.95 µM
O=C(Nc1ccc(S(=O)(=O)Nc2ccccc2)cc1)c1ccc(CN2CCOCC2)cc1	5.23 µM
CCCCCn1c2c(c(=N)c3ccccc31)CCC2	1.75 µM
CC1Cc2cc(-c3csc(NC(=O)Cc4cccs4)n3)ccc2N1S(C)(=O)=O (stereo not given)	2 µM
COc1ccccc1NC(=O)Cn1nnc(C(=O)NCc2cccs2)c1N	1.93 µM
Cc1ccc(C(=O)c2cc([N+](=O)[O-])ccc2N2CCCCC2)cc1C	6.16 µM
COc1cc(-c2c(-c3cc(OC)c(OC)c(OC)c3)noc2C)ccc1F	0.72 µM

SMILES	IC50
Cc1cc(C(=O)N2CC=C(c3ccccc3)CC2)c2ccccc2n1	5.69 µM
Cc1ccc(C(=O)c2cc([N+](=O)[O-])ccc2N2CCCCC2)c(C)c1	7.17 µM
CCOC(=O)c1[nH]c(C)c(C(=O)OCC(=O)NC(C)c2ccc(F)cc2)c1C (stereo not given)	> 80 µM (inactive)
CCc1c(C)nc2ncnn2c1NCCc1ccc(OC)cc1	3.03 µM
Cc1[nH]n(-c2ccccc2)c(=O)c1/C=N/Nc1nncc(-c2ccccc2)n1	0.2 µM
CC1=C(C(=O)OCc2ccc3c(c2)OCO3)C(c2ccc(Cl)cc2)NC(=O)N1 (stereo not given)	< 0.16 µM
O=C(Nc1ccc(S(=O)(=O)Nc2ccc(F)cc2)cc1)c1ccc(CN2CCOCC2)cc1	5.68 µM
Cc1ccsc1/C=N/NC(=O)c1cc(-c2ccncc2)nc2ccccc12	2.94 µM
COc1cc(C2=NOC(C(=O)NCc3ccc(F)cc3)C2)cc(OC)c1OC (stereo not given)	6.34 µM
O=C(c1ccccc1-c1ccccc1)N1CCN(c2ccccn2)CC1	> 80 µM (inactive)
O=S(=O)(c1ccc2c(c1)OCCO2)N1CCN(c2ncnc3sccc23)CC1	2.44 µM
CCOC(=O)c1ccc(NC(=O)Cn2cnc3cc(C)c(C)cc32)cc1	0.88 µM
N#Cc1ccc(-c2cccs2)nc1SCc1cccnc1	0.94 µM
C/C=C(\C)C(=O)N[C@@H](c1ccccc1)[C@@H](O)C(=O)O[C@H]1C[C@@]2(O)[C@@H](OC(=O)c3ccccc3)C3[C@](C)(C(=O)[C@H](O)C(=C1C)C2(C)C)[C@@H](O)C[C@H]1OC[C@@]31OC(C)=O (stereo not given in full)	> 80 µM (inactive)
CC(C)n1c(CN(C)Cc2ccccc2)nc2c1c(=O)n(C)c(=O)n2C	2.88 µM
COc1ccc(Nc2ncnc3ccc(Br)cc23)c(OC)c1	12 µM
CN[C@H]1CCc2cc(OC)c(OC)c(OC)c2-c2ccc(OC)c(=O)cc21	< 0.16 µM
Cc1cccc(N=Nc2ccc(O)c3ncccc23)c1	> 80 µM (inactive)
COc1ccc(CNC(=O)c2c(C)oc3c2C(=O)c2ccccc2C3=O)cc1	2.15 µM
COC(=O)Nc1ccc(S(=O)(=O)N2c3ccccc3CCC2C)cc1 (stereo not given)	13.1 µM
C#Cc1ccc([C@@H]2C=C(C(=O)N3CCN(Cc4ccccc4)CC3)O[C@H](OCCCCO)C2)cc1	2.32 µM
Cc1ccc(C(=O)Nc2cccc(C(=O)O)c2)cc1	4.1 µM
CCOC(=O)CSC1=C(C#N)C(c2ccc(C)s2)CC(=O)N1 (stereo not given)	3.78 µM
O=C(Cc1ccc(-c2ccccc2)cc1)NCc1ccccc1	< 0.16 µM

— PubChem BioAssay AID489041 (Sanford-Burnham Center for Chemical Genomics, 2010)
